Results taken from US20170166558A1, “O-GLCNAC TRANSFERASE (OGT) INHIBITORS AND USES THEREOF” (President and Fellows of Harvard College, priority 2014, published 2017).

Key:
Aqueous solubility = format: physicochemical
[1] = target: T1, full length human OGT (ncOGT) (Homo sapiens, UniProt O15294); assay: UDP-Glo luminescence-based coupled enzyme assay; format: biochemical
T1 construct: made in house
T1 sequence (O15294 1-1046): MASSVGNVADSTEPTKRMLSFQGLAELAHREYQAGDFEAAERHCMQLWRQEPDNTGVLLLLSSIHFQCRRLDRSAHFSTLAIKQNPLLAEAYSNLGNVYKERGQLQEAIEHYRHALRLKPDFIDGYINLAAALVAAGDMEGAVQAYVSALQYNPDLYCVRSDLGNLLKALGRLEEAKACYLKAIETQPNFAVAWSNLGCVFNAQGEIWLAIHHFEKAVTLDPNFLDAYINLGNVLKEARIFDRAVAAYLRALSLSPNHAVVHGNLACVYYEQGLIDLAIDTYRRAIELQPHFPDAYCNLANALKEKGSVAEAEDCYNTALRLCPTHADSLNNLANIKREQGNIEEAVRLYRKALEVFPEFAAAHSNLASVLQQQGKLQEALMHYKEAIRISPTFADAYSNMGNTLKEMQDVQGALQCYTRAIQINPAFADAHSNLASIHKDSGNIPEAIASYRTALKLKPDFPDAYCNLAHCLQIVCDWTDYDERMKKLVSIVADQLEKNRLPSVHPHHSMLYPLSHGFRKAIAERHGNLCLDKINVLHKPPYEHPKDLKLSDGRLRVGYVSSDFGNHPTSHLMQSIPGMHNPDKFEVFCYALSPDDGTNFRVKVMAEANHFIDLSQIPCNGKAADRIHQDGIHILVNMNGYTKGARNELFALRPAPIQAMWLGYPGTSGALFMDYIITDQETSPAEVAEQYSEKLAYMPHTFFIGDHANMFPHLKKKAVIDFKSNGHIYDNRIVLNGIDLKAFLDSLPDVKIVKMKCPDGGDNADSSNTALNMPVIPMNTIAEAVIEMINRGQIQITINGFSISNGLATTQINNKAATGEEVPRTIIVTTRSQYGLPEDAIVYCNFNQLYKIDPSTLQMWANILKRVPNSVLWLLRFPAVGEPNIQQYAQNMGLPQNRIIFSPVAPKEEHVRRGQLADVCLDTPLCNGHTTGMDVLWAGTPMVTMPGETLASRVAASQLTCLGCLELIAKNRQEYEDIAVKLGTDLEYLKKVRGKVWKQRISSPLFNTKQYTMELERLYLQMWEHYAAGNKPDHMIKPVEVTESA
Method: UDP-Glo assay: Materials for this assay were obtained from Promega (catalog #V6961), and the experiment was performed largely as outlined by the manufacturer. IC50 values were determined in the range of 0 to 100 μM (eleven concentration points). Assays were performed either in white, 96-well or ½-volume 96-well, plates. This assay was run with 125 μM CKII3K peptide acceptor. Reaction volumes were between 14 (half volume plates) and 20 (normal volume plates) μL. Reactions contained the following components: 300 nM ncOGT, 125 μM CKII3K and 40 μM UDP-GlcNAc in 1× PBS pH 7.4 supplemented with 1 mM THP. Reactions were incubated for one hour at 25° C. and quenched by the addition of an equal volume of UDP-Glo nucleotide detection reagent, prepared and used according to manufacturer guidelines. The quenched reactions were then mixed briefly by shaking at 1800 rpm in a Thermomixer C, and incubated for one hour at room temperature prior to reading luminescence, as per the manufacturers guidelines. Data were analyzed by Microsoft Excel and Prism 6 (Graphpad). When evaluating the effect of sugar donor concentration, this parameter was varied, while all other conditions remained as described above. Each sample in this case was run in duplicate, unless otherwise specified. The 40 μM curve in FIG. 16C has each point in quadruplicate. Similarly, there is an n=9 for each point in the OSMI-1 curve in FIG. 16B.

CHO cells = assay: ApoTox-Glo cell viability, cytotoxicity and apoptosis signaling assay; format: cell-based, Chinese hamster
Method: Cell viability, cytotoxicity and apoptosis signaling assays were performed in a 96-well plate using ApoTox-Glo reagent (Promega) according to the manufacturer's instructions.

OGT in CHO cells [2] = assay: Immunoblotting of global O-GlcNAcylation (RL2) in CHO cells; format: cell-based, Chinese hamster
Method: (§1) In vivo inhibition of glycosylation: For all immunoblotting experiments, CHO-K1 (CHO) cells were grown in F12-K media supplemented with 10% FBS and antibiotics at 37° C. in a 5% CO2 incubator. Cells were treated by adding indicated inhibitor in DMSO vehicle (0.5% final vehicle concentration) upon reaching 70% confluence. After indicated treatment length, cells were harvested by aspirating growth media and washing with ice cold 1× PBS. Cells were subsequently lysed in boiling 1% SDS/20 mM HEPES 7.9. After cooling to room temperature, 1 mM PMSF, 10 μM PUGNAC, 10 μM TMG and 1× Complete protease inhibitor cocktail were added to the solution. The mixture was sonicated and then subjected to a 5 minute incubation at 95° C. The samples were centrifuged for 15 minutes at 20,000×g and the supernatant was collected and the total protein was measured by BCA assay (BIO-RAD).
(§2) The sample was separated by SDS-PAGE (Bio-Rad 4-15%, Cat: 345-0028), transferred to a nitrocellulose membrane (iBlot, Invitrogen) and probed with the indicated antibody. Tyipcally, membranes were blocked with 4% BSA in 1× TBS+0.04% tween-20 for 1 hour before incubating with antibody (typically diluted 1:1000 in 4% BSA inlx TBS+0.04% tween-20) overnight at 4° C. Membranes were then washed three times with 1× TBS+0.04% tween-20 and incubated with secondary antibody (typically diluted 1:5000 in 4% BSA in 1× TBS+0.04% tween-20) for 1 hour at room temperature. Lastly, membranes were washed 3× with 1× TBS+0.04% tween-20 and imaged with ECL. D283-Med cells were treated as above but grown in F12-K media supplemented with 10% FBS and antibiotics. HEK, HeLa and LNCaP cells were treated as above but grown in RPMI media supplemented with 10% FBS and antibiotics.

[3] = tested on: CHO, HEK-293, HeLa and D283-Med cells; assay: Immunoblotting of global O-GlcNAcylation in various mammalian cell types; format: cell-based; details: 50 μM, 24 hours
Method: as §1
The sample was separated by SDS-PAGE (Bio-Rad 4-15%, Cat: 345-0028), transferred to a nitrocellulose membrane (iBlot, Invitrogen) and probed with the indicated antibody. Tyipcally, membranes were blocked with 4% BSA in 1× TBS+0.04% tween-20 for 1 hour before incubating with antibody (typically diluted 1:1000 in 4% BSA inlx TBS+0.04% tween-20) overnight at 4° C. […]

OGT in CHO cells [4] = assay: Markers of OGT inhibition in CHO cells (Nup62 mass shift, OGA levels, H2B-S112 O-GlcNAc); format: cell-based, Chinese hamster
Method: as §1, §2

COc1ccccc1[C@@H](NS(=O)(=O)c1ccc2[nH]c(=O)ccc2c1)C(=O)N(Cc1ccco1)Cc1cccs1 [OSMI-1, (R)—N-(furan-2-ylmethyl)-2-(2-methoxyphenyl)-2-(2-oxo-1,2-dihydroquinoline-6-sulfonamido)-N-(thiophen-2-ylmethyl)acetamide]
Aqueous solubility (Aqueous solubility): limited aqueous solubility
IC50 ([1]; 40 μM UDP-GlcNAc, 125 μM CKII3K peptide, read-out: IC50 against ncOGT, coupled enzyme assay): 2.7 µM
Mode of inhibition with respect to UDP-GlcNAc ([1]; various UDP-GlcNAc concentrations): did not act competitively
Cytotoxicity (CHO cells; 50 μM): not cytotoxic
Decrease of cell viability (CHO cells; 50 μM, 24 hours): about 50%
Apoptotic signaling (CHO cells; up to 50 μM): does not trigger apoptotic signaling
Onset of reduction of global O-GlcNAcylation (OGT in CHO cells [2]; 50 μM, 8-hour time course): within two hours
Concentration of maximal reduction of global O-GlcNAcylation (OGT in CHO cells [2]; 24 hr, 10-100 μM tested): 50 µM
Global O-GlcNAc levels in four cell lines [3]: reduce global O-GlcNAc levels in all four lines examined
Cellular OGA levels (OGT in CHO cells [4]): reduced cellular OGA
Nup62 mass shift (OGT in CHO cells [4]): shift to a lower molecular weight
O-GlcNAc modification of histone H2B-S112 (OGT in CHO cells [4]): greatly reduced
